The results in this text go back to patent publication US10253002B2, “Compounds and methods of treating infections” (Neoculi Pty Ltd., priority 2013, dated 2019).

Structures are written as SMILES. Converted amounts (≈) assume the structure as drawn. “And” between values parts separate entries of the source, which are not always exact repeats. Identical values can stand only once.

In the first assay the test system is MRSA. As to the kind of experiment: Broth microdilution MIC, Example 7 (NCL812 and analogues). The settings on record: MIC testing, two MRSA strains. Format: cell-based, Staphylococcus aureus. Put shortly: (§1)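 Turbidity read visually and then at 600 nm defined the MIC (μg/ml), comparing drug-containing wells with a growth-control well lacking antimicrobial. Testing followed the CLSI broth microdilution method, in duplicate, using two strains per organism group.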
With `C/C(=N\NC(=N)N/N=C(\C)c1ccc(C)cc1)c1ccc(C)cc1.Cl` [NCL217], the “activity against MRSA among analogues” value was “greatest activity”.
Same read-out and setting: the same measure for `C/C(=N\NC(=N)N/N=C(\C)c1ccc(C(C)(C)C)cc1)c1ccc(C(C)(C)C)cc1.Cl` [NCL219]: “greatest activity”.
Consider `Nc1nc(N/N=C/c2ccc(F)cc2)cc(N/N=C/c2ccc(F)cc2)n1` [NCL220], for which the “activity against MRSA among analogues” value is on record as “greatest activity”.
Still for that read-out and setting: the same measure for `Nc1nc(N/N=C/c2ccc(C(F)(F)F)cc2)cc(N/N=C/c2ccc(C(F)(F)F)cc2)n1` [NCL221]: “greatest activity”.

The same assay, now with this note: MRSA 1, 24 hours.
Regarding `Nc1nc(N/N=C/c2ccc(F)cc2)cc(N/N=C/c2ccc(F)cc2)n1` [NCL220], the “MIC (μg/ml) at 24 hours, MRSA 1” value worked out at 16 µg/mL (≈ 43.6 µM).

The assay is the same for the next values; noted with them: MRSA 2, 24 hours.
Turning to `Nc1nc(N/N=C/c2ccc(F)cc2)cc(N/N=C/c2ccc(F)cc2)n1` [NCL220], the “MIC (μg/ml) at 24 hours, MRSA 2” value was determined as 16 µg/mL (≈ 43.6 µM).

The assay is the same for the next values; noted with them: Staphylococcus aureus, MRSA, 24 h, read-out: MIC (μg/ml) at 24 hours MRSA 1, MRSA 1, 24 hours.
With `C/C(=N\NC(=N)N/N=C(\C)c1ccc(C)cc1)c1ccc(C)cc1.Cl` [NCL217], the MIC is 4 µg/mL.
Same read-out and setting: the same measure for `C/C(=N\NC(=N)N/N=C(\C)c1ccc(C(C)(C)C)cc1)c1ccc(C(C)(C)C)cc1.Cl` [NCL219]: 2 µg/mL.
The same measure, in the same setting: the same measure for `Nc1nc(N/N=C/c2ccc(C(F)(F)F)cc2)cc(N/N=C/c2ccc(C(F)(F)F)cc2)n1` [NCL221]: 4 µg/mL (≈ 8.56 µM).

Staying with this assay, now noted: Staphylococcus aureus, MRSA, 24 h, read-out: MIC (μg/ml) at 24 hours MRSA 2, MRSA 2, 24 hours.
In the case of `C/C(=N\NC(=N)N/N=C(\C)c1ccc(C)cc1)c1ccc(C)cc1.Cl` [NCL217], the MIC stood at 4 µg/mL.
The same measure, in the same setting: the result for `C/C(=N\NC(=N)N/N=C(\C)c1ccc(C(C)(C)C)cc1)c1ccc(C(C)(C)C)cc1.Cl` [NCL219] reads 2 µg/mL; that for `Nc1nc(N/N=C/c2ccc(C(F)(F)F)cc2)cc(N/N=C/c2ccc(C(F)(F)F)cc2)n1` [NCL221], 2 µg/mL (≈ 4.28 µM).

Still in this assay, the particulars now being: Staphylococcus aureus, MRSA, bioassay ranking, MRSA; read-out: MRSA.
In the case of `C/C(=N\NC(=N)N/N=C(\C)c1ccc(C)cc1)c1ccc(C)cc1.Cl` [NCL217], the MIC turned out to be 4 µg/mL.
On the same count and under the same terms, the result for `C/C(=N\NC(=N)N/N=C(\C)c1ccc(C(C)(C)C)cc1)c1ccc(C(C)(C)C)cc1.Cl` [NCL219] reads 2 µg/mL; that for `Nc1nc(N/N=C/c2ccc(C(F)(F)F)cc2)cc(N/N=C/c2ccc(C(F)(F)F)cc2)n1` [NCL221], 3 µg/mL (≈ 6.42 µM).

Still in this assay, the particulars now being: bioassay ranking, MRSA.
Take `Nc1nc(N/N=C/c2ccc(F)cc2)cc(N/N=C/c2ccc(F)cc2)n1` [NCL220]: the MRSA is 16 µg/mL.

For a further assay, the system named is VRE. Described as above. Format: cell-based, Enterococcus spp. The conditions noted are these: Enterococcus, VRE, 24 h, read-out: MIC (μg/ml) at 24 hours VRE 1, VRE 1, 24 hours. Put shortly: as §1
For `C/C(=N\NC(=N)N/N=C(\C)c1ccc(C)cc1)c1ccc(C)cc1.Cl` [NCL217], the MIC is 2 µg/mL.
The same measure, in the same setting: the same measure for `C/C(=N\NC(=N)N/N=C(\C)c1ccc(C(C)(C)C)cc1)c1ccc(C(C)(C)C)cc1.Cl` [NCL219]: 16 µg/mL; for `Nc1nc(N/N=C/c2ccc(C(F)(F)F)cc2)cc(N/N=C/c2ccc(C(F)(F)F)cc2)n1` [NCL221]: 64 µg/mL (≈ 137 µM).

The same assay, now with this note: Enterococcus, VRE, 24 h, read-out: MIC (μg/ml) at 24 hours VRE 2, VRE 2, 24 hours.
For `C/C(=N\NC(=N)N/N=C(\C)c1ccc(C)cc1)c1ccc(C)cc1.Cl` [NCL217], the MIC is 4 µg/mL.
Regarding `C/C(=N\NC(=N)N/N=C(\C)c1ccc(C(C)(C)C)cc1)c1ccc(C(C)(C)C)cc1.Cl` [NCL219], the MIC came to 16 µg/mL.
On the same count and under the same terms, the result for `Nc1nc(N/N=C/c2ccc(C(F)(F)F)cc2)cc(N/N=C/c2ccc(C(F)(F)F)cc2)n1` [NCL221] reads 64 µg/mL (≈ 137 µM).

The same assay, now with this note: Enterococcus, VRE, bioassay ranking, VRE; read-out: VRE.
Turning to `C/C(=N\NC(=N)N/N=C(\C)c1ccc(C)cc1)c1ccc(C)cc1.Cl` [NCL217], the MIC came to 3 µg/mL.
Still for that read-out and setting: the result for `C/C(=N\NC(=N)N/N=C(\C)c1ccc(C(C)(C)C)cc1)c1ccc(C(C)(C)C)cc1.Cl` [NCL219] reads 16 µg/mL.

Staying with this assay, now noted: MIC testing, two VRE strains.
For the compound `C/C(=N\NC(=N)N/N=C(\C)c1ccc(C)cc1)c1ccc(C)cc1.Cl` [NCL217], the “activity against VRE among analogues” value is “greatest activity”.
Still for that read-out and setting: the same measure for `C/C(=N\NC(=N)N/N=C(\C)c1ccc(C(C)(C)C)cc1)c1ccc(C(C)(C)C)cc1.Cl` [NCL219]: “greatest activity”.
Still for that read-out and setting: the same measure for `Nc1nc(N/N=C/c2ccc(F)cc2)cc(N/N=C/c2ccc(F)cc2)n1` [NCL220]: “greatest activity”; for `Nc1nc(N/N=C/c2ccc(C(F)(F)F)cc2)cc(N/N=C/c2ccc(C(F)(F)F)cc2)n1` [NCL221]: “greatest activity”.

The same assay, now with this note: VRE 1, 24 hours.
Turning to `Nc1nc(N/N=C/c2ccc(F)cc2)cc(N/N=C/c2ccc(F)cc2)n1` [NCL220], the “MIC (μg/ml) at 24 hours, VRE 1” value was found to be 32 µg/mL (≈ 87.1 µM).

The assay is the same for the next values; noted with them: VRE 2, 24 hours.
Turning to `Nc1nc(N/N=C/c2ccc(F)cc2)cc(N/N=C/c2ccc(F)cc2)n1` [NCL220], the “MIC (μg/ml) at 24 hours, VRE 2” value stood at 32 µg/mL (≈ 87.1 µM).

Still in this assay, the particulars now being: bioassay ranking, VRE.
Compound `Nc1nc(N/N=C/c2ccc(F)cc2)cc(N/N=C/c2ccc(F)cc2)n1` [NCL220] showed a VRE of 32 µg/mL.

The subject of the next assay is Escherichia coli. The assay is described as above. The conditions noted are these: E. coli, 24 hours. Format: cell-based.
Consider `Nc1nc(N/N=C/c2ccc(F)cc2)cc(N/N=C/c2ccc(F)cc2)n1` [NCL220], for which the “MIC (μg/ml) at 24 hours, E. coli” value is over 128 µg/mL.

Still in this assay, the particulars now being: Escherichia coli, read-out: MIC (μg/ml) at 24 hours E. coli; E. coli, 24 hours.
In the case of `C/C(=N\NC(=N)N/N=C(\C)c1ccc(C)cc1)c1ccc(C)cc1.Cl` [NCL217], the MIC is over 128 µg/mL.
The same measure, in the same setting: the result for `C/C(=N\NC(=N)N/N=C(\C)c1ccc(C(C)(C)C)cc1)c1ccc(C(C)(C)C)cc1.Cl` [NCL219] reads over 128 µg/mL; that for `Nc1nc(N/N=C/c2ccc(C(F)(F)F)cc2)cc(N/N=C/c2ccc(C(F)(F)F)cc2)n1` [NCL221], over 128 µg/mL.

A further assay concerns Pseudomonas aeruginosa. Described as above. Format: cell-based. The settings on record: P. aeruginosa, 24 hours.
`Nc1nc(N/N=C/c2ccc(F)cc2)cc(N/N=C/c2ccc(F)cc2)n1` [NCL220]: the “MIC (μg/ml) at 24 hours, P. aeruginosa” value is over 128 µg/mL.

Still in this assay, the particulars now being: Pseudomonas aeruginosa, 24 h, read-out: MIC (μg/ml) at 24 hours P. aeruginosa, P. aeruginosa, 24 hours.
For the compound `C/C(=N\NC(=N)N/N=C(\C)c1ccc(C)cc1)c1ccc(C)cc1.Cl` [NCL217], the MIC is over 128 µg/mL.
The same measure, in the same setting: the result for `C/C(=N\NC(=N)N/N=C(\C)c1ccc(C(C)(C)C)cc1)c1ccc(C(C)(C)C)cc1.Cl` [NCL219] reads over 128 µg/mL; that for `Nc1nc(N/N=C/c2ccc(C(F)(F)F)cc2)cc(N/N=C/c2ccc(C(F)(F)F)cc2)n1` [NCL221], over 128 µg/mL.

A further assay has as its system Staphylococcus aureus T3-129 / Staphylococcus spp. MK1. As to the kind of experiment: Synergy studies, checkerboard method (FIC index). Format: cell-based. The settings on record: Staphylococcus spp. Strain MK1; FIC index of antibiotic with NCL812.
For the compound `CC1(C)S[C@@H]2[C@H](NC(=O)Cc3ccccc3)C(=O)N2[C@H]1C(=O)O` [Penicillin G], the FICI is 1 and 0.625.
Still for that read-out and setting: the result for `Cc1cc(NS(=O)(=O)c2ccc(N)cc2)no1` [Sulfamethoxazole] reads 0.75 and 1.

Still in this assay, the particulars now being: Staphylococcus spp. Strain MK1; MIC of antibiotic in combination with NCL812/MIC of antibiotic alone.
Regarding `Cc1cc(NS(=O)(=O)c2ccc(N)cc2)no1` [Sulfamethoxazole], the FIC1 turned out to be 0.5.

The assay is the same for the next values; noted with them: Staphylococcus spp. Strain MK1; antibiotic alone.
In the case of `CC1(C)S[C@@H]2[C@H](NC(=O)Cc3ccccc3)C(=O)N2[C@H]1C(=O)O` [Penicillin G], the “Antibiotic MIC Alone” value was 0.125 µg/mL and 0.25 µg/mL.
For the compound `Cc1cc(NS(=O)(=O)c2ccc(N)cc2)no1` [Sulfamethoxazole], the “Antibiotic MIC Alone” value was 8 µg/mL.

Staying with this assay, now noted: Staphylococcus spp. Strain MK1; antibiotic in combination with NCL812.
Turning to `CC1(C)S[C@@H]2[C@H](NC(=O)Cc3ccccc3)C(=O)N2[C@H]1C(=O)O` [Penicillin G], the “Antibiotic MIC With NCL812” value was 0.062 µg/mL and 0.031 µg/mL.
Still for that read-out and setting: the result for `Cc1cc(NS(=O)(=O)c2ccc(N)cc2)no1` [Sulfamethoxazole] reads 4 µg/mL.

Still in this assay, the particulars now being: Staphylococcus spp. Strain MK1; antibiotic with NCL812.
`CC1(C)S[C@@H]2[C@H](NC(=O)Cc3ccccc3)C(=O)N2[C@H]1C(=O)O` [Penicillin G]: the “Result (interaction with NCL812)” value is on record as “NE (No effect (NE) was defined as 0.5<FICI<4)”.
Same read-out and setting: the result for `Cc1cc(NS(=O)(=O)c2ccc(N)cc2)no1` [Sulfamethoxazole] reads “NE (No effect (NE) was defined as 0.5<FICI<4)”.

System in a further assay: not listed separately
As to the kind of experiment: Bioassay ranking of the analogues tested. The conditions noted are these: M + R (MRSA and VRE combined).
Regarding `C/C(=N\NC(=N)N/N=C(\C)c1ccc(C)cc1)c1ccc(C)cc1.Cl` [NCL217], the “M + R” value is 3.5 µg/mL.
On the same count and under the same terms, the same measure for `C/C(=N\NC(=N)N/N=C(\C)c1ccc(C(C)(C)C)cc1)c1ccc(C(C)(C)C)cc1.Cl` [NCL219]: 9 µg/mL.
The same measure, in the same setting: the same measure for `Nc1nc(N/N=C/c2ccc(F)cc2)cc(N/N=C/c2ccc(F)cc2)n1` [NCL220]: 24 µg/mL.
The same measure, in the same setting: the same measure for `Nc1nc(N/N=C/c2ccc(C(F)(F)F)cc2)cc(N/N=C/c2ccc(C(F)(F)F)cc2)n1` [NCL221]: 33.5 µg/mL.
